Results on five molecules are retold here after article PMC9599520, “The Membrane Activity of the Amphibian Temporin B Peptide Analog TB_KKG6K Sheds Light on the Mechanism That Kills Candida albicans” (mSphere, 2022).

One data set concerns C. albicans (CBS 5982). The data set can be described thus: microbe, parasite or virus in culture. In kind it is cell-based, Candida albicans. Particulars: for IC90: Candida albicans, CBS5982, 24 h, 0.05× PDB, 30°C, 24 h, OD620, read-out: IC90 (inhibitory concentration that reduced growth by ≥90%).
The next data set has as its system C. albicans cells. The data set can be described thus: Uptake mechanism (fluorescence microscopy, 4°C or CCCP). The format is cell-based, Candida albicans. Particulars: 2 μM.
Data set [1] in a line: Vesicle leakage assay (ANTS-DPX), all LUVs. In kind it is biochemical. Particulars: 32 μM peptide, negative control, 1% Triton X-100 = 100%.
Data set [2] in a line: Vesicle leakage assay, PG. The settings on record: PG-LUVs; 32 μM peptide (1.5:1), negative control; 50 μM lipid, 30 min, 37°C; mean ± SD. In kind it is biochemical.
The nature of data set [3]: Vesicle leakage assay, PC-CL. The format is biochemical. The settings on record: PC-CL-LUVs; 32 μM peptide (1.5:1), negative control; 50 μM lipid, 30 min, 37°C; mean ± SD.
A short description of data set [4]: Vesicle leakage assay, PC-ceramide. In kind it is biochemical. Particulars: PC-ceramide-LUVs; 32 μM peptide (1.5:1), negative control; 50 μM lipid, 30 min, 37°C; mean ± SD.
Data set [5] is described as follows: Vesicle leakage assay, PC-ergosterol. The format is biochemical. The settings on record: PC-ergosterol-LUVs; 32 μM peptide (1.5:1), negative control; 50 μM lipid, 30 min, 37°C; mean ± SD.
Data set [6] is described as follows: Vesicle leakage assay, PC-PS. The settings on record: PC-PS-LUVs; 32 μM peptide (1.5:1), negative control; 50 μM lipid, 30 min, 37°C; mean ± SD. In kind it is biochemical.
A short description of data set [7]: Vesicle leakage assay, PC-PI. In kind it is biochemical. The settings on record: PC-PI-LUVs; 32 μM peptide (1.5:1), negative control; 50 μM lipid, 30 min, 37°C; mean ± SD.
Data set [8] in a line: Vesicle leakage assay, PC-PE. The format is biochemical. Particulars: PC-PE-LUVs; 32 μM peptide (1.5:1), negative control; 50 μM lipid, 30 min, 37°C; mean ± SD.
Data set [9] in a line: Vesicle leakage assay, PC-PS-ergosterol. In kind it is biochemical. Particulars: PC-PS-ergosterol-LUVs; 32 μM peptide (1.5:1), negative control; 50 μM lipid, 30 min, 37°C; mean ± SD.
Data set [10] can be described thus: Vesicle leakage assay, PC-sphingomyelin. In kind it is biochemical. Particulars: PC-sphingomyelin-LUVs; 32 μM peptide (1.5:1), negative control; 50 μM lipid, 30 min, 37°C; mean ± SD.
The test system of data set [11] is C. albicans cell membrane. The data set can be described thus: Membrane depolarization assay with DiSC3(5) dye. The format is cell-based, Candida albicans. The settings on record: 1 × 10^6 cells/mL, 30°C, 60 min, PCγ^C-terminal 32 μM.
Data set [12] is described as follows: Vesicle leakage assay, PG-PE-CL. The format is biochemical. Particulars: PG-PE-CL-LUVs; 32 μM peptide (1.5:1), negative control; 50 μM lipid, 30 min, 37°C; mean ± SD.
Data set [13] can be described thus: Vesicle leakage assay, PC-PE-ergosterol. The settings on record: PC-PE-ergosterol-LUVs; 32 μM peptide (1.5:1), negative control; 50 μM lipid, 30 min, 37°C; mean ± SD. The format is biochemical.
Data set [14] is described as follows: Vesicle leakage assay, PC. The format is biochemical. Particulars: PC-LUVs; 32 μM peptide (1.5:1), negative control; 50 μM lipid, 30 min, 37°C; mean ± SD.
The conditions of data set [15]: cited from earlier work.

Where a name gives a salt, the structure may show the parent alone. Read-outs that look alike come from different tables or passages of the source. Where no end group is shown, it is not given here.

Turning to `CCCCCCCCN=c1ccn(CCCCCCCCCCn2ccc(=NCCCCCCCC)cc2)cc1` [Octenidine, N,N′-(1,10 decanediyldi-1[4H]-pyridinyl-4-ylidene)-bis-(1-octanamine) dihydrochloride], the IC90 with C. albicans (CBS 5982) (1 × 10^4 cells/mL) stood at 1000 nM; in the data set on C. albicans (CBS 5982) (1 × 10^6 cells/mL), 2000 nM.

As to “BODIPY-PAFB: P. chrysogenum antifungal protein B (PAFB) conjugated with the green fluorophore BODIPY; control for energy-dependent uptake (LSKFGGECSLKHNTCTYLKGGKNHVVNCGSAANKKCKSDRHHCEYDEHHKRVDCQTPV; cysteine pairing not given here; also: BODIPY label, position not given here; UniProt D0EXD3 35-92, looked up)”, in the data set on C. albicans cells (30°C, standard condition, 45 min for BODIPY-PAFB), the “uptake into C. albicans cells” value is “taken up by C. albicans”. The “uptake into C. albicans cells with reduced respiration and metabolism” value with C. albicans cells (4°C, or 30°C with 100 μM CCCP, 15 min (FITC-TB_KKG6K), 45 min (BODIPY-PAFB)) was “no internalization”.

Take “CGGASCRG [PCγ^C-terminal, negative control peptide CGGASCRG derived from the C-terminal part of Penicillium chrysogenum antifungal protein C (PAFC), reference compound]”: the fungal growth inhibition result with C. albicans (CBS 5982) (peptide concentration 0 to 32 μM) is on record as “No fungal growth inhibition”. Further, the “% Leakage” value in data set [1] is given as at most 2%; in [2], 1.9 ± 1%; in data set [3], 0.7 ± 0.4%; in data set [4], 1.3 ± 0.2%; in data set [5], 1.1 ± 0.9%; in [6], 0.9 ± 2.7%. For the same molecule, the “% Leakage” value in [7] is given as 0.4 ± 0.5%; in data set [8], 1.4 ± 0.6%; in [9], 2.0 ± 1.4%; in data set [10], 0.6 ± 0.8%; in data set [12], −1.2 ± 1.6%; in data set [13], 1.7 ± 2.0%. The “% Leakage” value in [14] is 1.4 ± 1.4%. Further, in [11] (TB analog 0.5, 1, 2 μM, Triton X-100 1% (wt/vol)), the “membrane depolarization, DiSC3(5) fluorescence intensity” value is “No membrane depolarization”.

With Temporin B [reference compound], the “hydrophobicity (hydrophobic amino acids)” value in [15] is 61%. Besides, the positive net charge entry in data set [15] (pH 7) is listed as “+0.9”.

Triton X-100 [reference compound]: the “membrane depolarization, DiSC3(5) fluorescence intensity” value in [11] ([…]) is “fast and sustained increase in fluorescence intensity”.
